Assay results taken from the NIST ThermoML archive (doi:10.1016/j.jct.2012.08.030).
± gives the expanded uncertainty stated by the source.

Legend:
[1] = xn = mol fraction of the nth substance listed; details: 101.3 kPa, Liquid; for speed of sound: Sing-around technique in a fixed-path interferometer; for mass density: Vibrating tube method
[2] = refractive index (Na D-line) (dimensionless); xn = mol fraction of the nth substance listed; details: 101.3 kPa, Liquid, Standard Abbe refractometry

CCCCn1cc[n+](C)c1.COS(=O)(=O)[O-] [1-butyl-3-methylimidazolium methyl sulfate] + CO
Details	mass density, [1] [kg/m3]	refractive index, [2]	speed of sound, [1] [m/s]
298.15 K, x1 = 0.0422	871.193 ± 0.34	1.35708 ± 0.00031	1191.8 ± 0.66
298.15 K, x1 = 0.094	942.4 ± 0.23	1.38271 ± 0.00032	1273.9 ± 0.75
298.15 K, x1 = 0.1857	1027.84 ± 0.2	1.41321 ± 0.00034	1384.7 ± 0.94
298.15 K, x1 = 0.2858	1084.79 ± 0.28	1.43348 ± 0.00036	1464 ± 1.2
298.15 K, x1 = 0.3729	1118.3 ± 0.43	1.44537 ± 0.00039	1512.2 ± 1.4
298.15 K, x1 = 0.4772	1146.38 ± 0.67	1.45531 ± 0.00043	1553.5 ± 1.7
298.15 K, x1 = 0.5769	1166.12 ± 0.95	1.46226 ± 0.00047	1583.1 ± 1.9
298.15 K, x1 = 0.6775	1181.29 ± 1.3	1.46761 ± 0.00052	1606.1 ± 2.2
298.15 K, x1 = 0.7947	1194.94 ± 1.8	1.47248 ± 0.00057	1627 ± 2.5
298.15 K, x1 = 0.8923	1204.14 ± 2.3	1.47576 ± 0.00062	1641.7 ± 2.8
298.15 K, x1 = 0.9526	1208.98 ± 2.6	1.47744 ± 0.00065	1649.4 ± 3
298.15 K, x1 = 1	1212.06 ± 2.8	1.47824 ± 0.00068	1654.6 ± 3.1
303.15 K, x1 = 0.0422	866.765 ± 0.34	1.35523 ± 0.00031	1176.5 ± 0.65
303.15 K, x1 = 0.094	938.21 ± 0.23	1.38094 ± 0.00032	1259.6 ± 0.75
303.15 K, x1 = 0.1857	1023.91 ± 0.19	1.41156 ± 0.00034	1371.1 ± 0.94
303.15 K, x1 = 0.2858	1081.04 ± 0.28	1.43193 ± 0.00036	1450.9 ± 1.2
303.15 K, x1 = 0.3729	1114.64 ± 0.42	1.44388 ± 0.00039	1499.3 ± 1.4
303.15 K, x1 = 0.4772	1142.82 ± 0.66	1.45387 ± 0.00043	1540.9 ± 1.7
303.15 K, x1 = 0.5769	1162.61 ± 0.95	1.46087 ± 0.00047	1570.7 ± 1.9
303.15 K, x1 = 0.6775	1177.83 ± 1.3	1.46624 ± 0.00052	1593.8 ± 2.2
303.15 K, x1 = 0.7947	1191.5 ± 1.8	1.47111 ± 0.00057	1614.7 ± 2.5
303.15 K, x1 = 0.8923	1200.73 ± 2.2	1.4744 ± 0.00062	1629.5 ± 2.8
303.15 K, x1 = 0.9526	1205.6 ± 2.6	1.47608 ± 0.00065	1637.2 ± 3
303.15 K, x1 = 1	1208.7 ± 2.8	1.47704 ± 0.00068	1642.2 ± 3.1
308.15 K, x1 = 0.0422	862.332 ± 0.34	1.35331 ± 0.00031	1161.3 ± 0.65
308.15 K, x1 = 0.094	934.013 ± 0.23	1.37913 ± 0.00032	1245.1 ± 0.74
308.15 K, x1 = 0.1857	1019.99 ± 0.19	1.4099 ± 0.00034	1357.5 ± 0.94
308.15 K, x1 = 0.2858	1077.29 ± 0.28	1.43036 ± 0.00036	1437.7 ± 1.2
308.15 K, x1 = 0.3729	1111 ± 0.42	1.44239 ± 0.00039	1486.4 ± 1.4
308.15 K, x1 = 0.4772	1139.26 ± 0.66	1.45242 ± 0.00043	1528.2 ± 1.7
308.15 K, x1 = 0.5769	1159.12 ± 0.94	1.45945 ± 0.00047	1558.2 ± 1.9
308.15 K, x1 = 0.6775	1174.38 ± 1.3	1.46485 ± 0.00052	1581.4 ± 2.2
308.15 K, x1 = 0.7947	1188.07 ± 1.8	1.46972 ± 0.00057	1602.4 ± 2.5
308.15 K, x1 = 0.8923	1197.33 ± 2.2	1.47303 ± 0.00062	1617.2 ± 2.8
308.15 K, x1 = 0.9526	1202.23 ± 2.5	1.47475 ± 0.00065	1624.9 ± 3
308.15 K, x1 = 1	1205.35 ± 2.8	1.47577 ± 0.00068	1630 ± 3.1
313.15 K, x1 = 0.0422	857.888 ± 0.35	1.35141 ± 0.00031	1146.2 ± 0.65
313.15 K, x1 = 0.094	929.815 ± 0.24	1.37735 ± 0.00032	1230.8 ± 0.74
313.15 K, x1 = 0.1857	1016.06 ± 0.2	1.40827 ± 0.00034	1343.9 ± 0.94
313.15 K, x1 = 0.2858	1073.54 ± 0.28	1.4288 ± 0.00036	1424.6 ± 1.2
313.15 K, x1 = 0.3729	1107.37 ± 0.42	1.4409 ± 0.00039	1473.6 ± 1.4
313.15 K, x1 = 0.4772	1135.72 ± 0.65	1.45097 ± 0.00043	1515.7 ± 1.7
313.15 K, x1 = 0.5769	1155.64 ± 0.94	1.45804 ± 0.00047	1545.9 ± 1.9
313.15 K, x1 = 0.6775	1170.94 ± 1.3	1.46348 ± 0.00052	1569.2 ± 2.2
313.15 K, x1 = 0.7947	1184.65 ± 1.8	1.46836 ± 0.00057	1590.3 ± 2.5
313.15 K, x1 = 0.8923	1193.93 ± 2.2	1.47168 ± 0.00062	1605.1 ± 2.8
313.15 K, x1 = 0.9526	1198.87 ± 2.5	1.47338 ± 0.00065	1612.9 ± 3
313.15 K, x1 = 1	1202.01 ± 2.8	1.47443 ± 0.00068	1617.9 ± 3.1
